Consider 39 compounds from patent US6727264B1 (Synaptic Pharmaceutical Corporation, priority 2001, dated 2004).

Where two headings read alike, the source gives them in different places.

The target of assay [1] is human Dopamine D2 receptor (Homo sapiens, UniProt P14416). Description: Binding affinity at cloned human Dopamine D2 receptor. Conditions: read-out: hD2 Ki.
Assay [2] deals with rat MCH-1 (Rattus norvegicus, UniProt P97639). Kind of assay: Radioligand binding assay at cloned rat MCH1 receptor ([3H] Compound A). Set-up: host or cells: Peak rapid 293 (Peakr293) cells, transient calcium phosphate transfection, membranes. Particulars: cloned rat MCH1 receptor, 0.08 nM [3H] Compound A, read-out: Ki (nM) rMCH1.
Sequence of rat MCH-1 (P97639 whole entry): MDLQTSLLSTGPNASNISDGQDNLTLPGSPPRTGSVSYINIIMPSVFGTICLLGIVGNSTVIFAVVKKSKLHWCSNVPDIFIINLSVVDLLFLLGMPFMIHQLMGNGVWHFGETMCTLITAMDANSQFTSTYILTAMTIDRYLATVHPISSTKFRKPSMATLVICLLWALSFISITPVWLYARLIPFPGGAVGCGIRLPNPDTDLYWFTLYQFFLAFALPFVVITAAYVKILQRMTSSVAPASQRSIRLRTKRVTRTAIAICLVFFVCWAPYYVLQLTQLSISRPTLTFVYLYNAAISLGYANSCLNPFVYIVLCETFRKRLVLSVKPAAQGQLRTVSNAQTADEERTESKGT
The target in assay [3] is T1, human Histamine H1 receptor (Homo sapiens, UniProt P35367).
T1 construct: expressed in transfected cells
T1 sequence (P35367 whole entry): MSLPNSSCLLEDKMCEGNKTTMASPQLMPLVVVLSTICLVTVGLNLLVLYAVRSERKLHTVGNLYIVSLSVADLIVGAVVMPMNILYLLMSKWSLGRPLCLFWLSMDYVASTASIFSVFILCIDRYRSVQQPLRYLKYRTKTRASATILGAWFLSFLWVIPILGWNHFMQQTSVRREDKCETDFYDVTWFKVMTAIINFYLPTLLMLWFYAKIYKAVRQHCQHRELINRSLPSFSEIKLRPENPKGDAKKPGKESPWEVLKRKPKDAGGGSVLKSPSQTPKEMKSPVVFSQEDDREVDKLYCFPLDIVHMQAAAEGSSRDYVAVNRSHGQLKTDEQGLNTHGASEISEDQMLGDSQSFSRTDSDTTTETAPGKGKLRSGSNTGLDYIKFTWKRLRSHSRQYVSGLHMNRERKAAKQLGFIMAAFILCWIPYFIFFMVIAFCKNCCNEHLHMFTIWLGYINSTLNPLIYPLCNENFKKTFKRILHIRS
Kind of assay: Binding affinity at cloned human Histamine H1 receptor. Conditions: read-out: hH1 Ki.

Assay [4] addresses T2, human Alpha-1a Adrenergic receptor (Homo sapiens, UniProt P35348).
T2 construct: expressed in transfected cells
T2 sequence (P35348 1-466): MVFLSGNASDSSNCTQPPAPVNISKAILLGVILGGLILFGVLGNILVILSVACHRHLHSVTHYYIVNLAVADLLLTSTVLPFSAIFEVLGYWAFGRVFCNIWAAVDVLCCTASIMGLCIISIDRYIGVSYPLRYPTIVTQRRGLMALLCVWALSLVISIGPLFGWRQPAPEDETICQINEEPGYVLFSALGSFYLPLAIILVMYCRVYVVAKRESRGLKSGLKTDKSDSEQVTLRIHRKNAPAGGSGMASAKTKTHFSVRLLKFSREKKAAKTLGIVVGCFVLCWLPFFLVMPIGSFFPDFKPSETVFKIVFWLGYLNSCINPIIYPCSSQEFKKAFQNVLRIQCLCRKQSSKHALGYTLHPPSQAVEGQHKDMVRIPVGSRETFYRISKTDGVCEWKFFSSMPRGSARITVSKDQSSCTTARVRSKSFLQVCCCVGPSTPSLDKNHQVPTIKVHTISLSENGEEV
Description: Binding affinity at cloned human Alpha-1a Adrenergic receptor. Particulars: read-out: hALPHA-1a Ki.

Assay [5] concerns Female Sprague Dawley rats. Description: Distension-induced rhythmic contraction (DIRC) model of the micturition reflex. Set-up: key: E: Produced a significant increase in contraction interval relative to pre-drug interval. In kind it is in vivo, rat. Conditions: urethane-anesthetized female rats, i.v. or i.p.; vs pre-drug interval. On the procedure:
The effects of compounds on the micturition reflex were assessed in the “distension-induced rhythmic contraction” (DIRC), as described in previous publications (e.g. Maggi et al, 1987; Morikawa et al, 1992), and Continuous Slow Transvesicular Infusion (CSTI) models in rats. Female Sprague Dawley rats weighing approximately 300 g were anesthetized with subcutaneous urethane (1.2 g/kg). The trachea was cannulated with PE240 tubing to provide a clear airway throughout the experiment. A midline abdominal incision was made and the left and right ureters were isolated. The ureters were ligated distally (to prevent escape of fluids from the bladder) and cannulated proximally with PE10 tubing. The incision was closed using 4-0 silk sutures, leaving the PE10 lines routed to the exterior for the elimination of urine. The bladder was canulated via the transurethral route using PE50 tubing inserted 2.5 cm beyond the urethral opening. This cannula was secured to the tail using tape and connected to a pressure transducer. To prevent leakage from the bladder, the cannula was tied tightly to the exterior urethral opening using 4-0 silk. To initiate the micturition reflex, the bladder was first emptied by applying pressure to the lower abdomen, and then filled with normal saline in […] (maximum=2 ml) until spontaneous bladder contractions occurred (typically 20-40 mmHg at a rate of one contraction every 2 to 3 minutes. Once a regular rhythm was established, vehicle (saline) or Test Compounds were administered i.v. or i.p. to explore their effects on bladder activity. The 5-HT1A antagonist WAY-100635 was given as a positive control. Data were expressed as contraction interval (in seconds) before drug application (basal), or after the application of vehicle or test article.

The test system of assay [6] is Male Sprague Dawley rats. Kind of assay: Continuous Slow Transvesicular Infusion (CSTI) rat model. Particulars: intragastric administration, vs baseline capacity. Format: in vivo. Details: key: F: Produced an increase in bladder capacity in rats relative to baseline capacity. On the procedure: The effects of compounds on the micturition reflex were assessed in the “distension-induced rhythmic contraction” (DIRC), as described in previous publications (e.g. Maggi et al, 1987; Morikawa et al, 1992), and Continuous Slow Transvesicular Infusion (CSTI) models in rats. Male Sprague Dawley rats weighing approximately 300 g were used for the study. Rats were anaesthetized with pentobarbitone sodium (50 mg/kg, i.p). Through a median abdominal incision, bladder was exposed and a polyethylene cannula (PE 50) was introduced into the bladder through a small cut on the dome of the bladder and the cannula was secured with a purse string suture. The other end of the cannula was exteriorized subcutaneously at the dorsal neck area. Similarly, another cannula (PE 50) was introduced into the stomach through a paramedian abdominal incision with the free end exteriorized subcutaneously to the neck region. The surgical wounds were closed with silk 4-0 suture and the animal was allowed to recover with appropriate post surgical care. On the following day, the animal was placed in a rat restrainer. The open end of the bladder-cannula was connected to a pressure transducer as well as infusion pump through a three-way stopcock. The bladder voiding cycles were initiated by continuous infusion of normal saline at the rate of 100 μl/min. The repetitive voiding contractions were recorded on a Power Lab on-line data acquisition software. After recording the basal voiding pattern for an hour, the test drug or vehicle was administered directly into stomach through the intragastric catheter and the voiding cycles were monitored for 5 hours. Micturition pressure and frequency were calculated before and after the treatment (at every 30 min interval) for each animal. Bladder capacity was calculated from the micturition frequency, based on the constant infusion of 100 ul/min. The effect of the test drug was expressed as a percentage of basal, pre-drug bladder capacity. WAY 100635 was used as positive control for comparison.

Assay [7] has as its system G4F-7 cells. Particulars: cited from earlier work.

Sequence of human Dopamine D2 receptor (P14416 whole entry): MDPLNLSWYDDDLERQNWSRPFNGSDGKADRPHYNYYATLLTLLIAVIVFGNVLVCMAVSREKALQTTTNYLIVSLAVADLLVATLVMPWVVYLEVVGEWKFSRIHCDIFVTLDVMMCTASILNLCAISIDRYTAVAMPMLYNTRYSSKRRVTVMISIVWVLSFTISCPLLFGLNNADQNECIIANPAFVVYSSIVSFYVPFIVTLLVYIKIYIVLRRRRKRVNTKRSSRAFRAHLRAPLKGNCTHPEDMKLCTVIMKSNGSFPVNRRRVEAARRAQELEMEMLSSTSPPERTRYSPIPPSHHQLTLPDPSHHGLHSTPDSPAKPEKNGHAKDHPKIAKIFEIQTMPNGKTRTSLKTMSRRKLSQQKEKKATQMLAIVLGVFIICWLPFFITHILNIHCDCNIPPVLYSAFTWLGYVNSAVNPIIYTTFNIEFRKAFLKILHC

On to `CC(C)C(=O)Nc1cccc(C2CCN(CCC(OC(=O)c3cccc4ccccc34)c3ccccc3)CC2)c1` (stereo in doubt) [Example 69, (1S)-3-{4-[3-(ISOBUTYRYLAMINO)PHENYL]-1-PIPERIDINYL}-1-PHENYLPROPYL 1-NAPHTHOATE], for which the Ki in assay [1] was 46.6 nM; in assay [2] (membranes from Peakr293 cells), 32.5 nM; in assay [3], over 50000 nM; in assay [4], 232 nM.

For `Cc1ccc(C(=O)CCCN2CCC(c3cccc(NC(=O)C(C)C)c3)CC2)cc1C` [Example 2], in assay [5], the “DIRC (contraction interval)” value is listed as “E”. The “CSTI (bladder capacity)” value in assay [6] is “F”.

For the compound `CC(C)C(=O)Nc1cccc(C2CCN(CCCC(=O)c3ccc(Cl)cc3)CC2)c1` [Example 10], in assay [5], the “DIRC (contraction interval)” value was “E”. Moreover, in assay [6], the “CSTI (bladder capacity)” value is listed as “F”.

In the case of `COC(CCN1CCC(c2cccc(NC(=O)C(C)C)c2)CC1)c1ccccc1` (stereo not drawn) [Example 37], the Ki in assay [1] was 34900 nM.

With `CC(C)C(=O)Nc1cccc(C2CCN(CC[C@H](Oc3ccc(-c4ccccc4)cc3)c3ccccc3)CC2)c1` [Example 78], in assay [3], the Ki is over 50000 nM.

`COc1ccc2[nH]c(-c3ccccc3)c(CCCN3CCC(c4cccc(NC(=O)C(C)C)c4)CC3)c2c1` [Example 91]: the “DIRC (contraction interval)” value in assay [5] is recorded as “E”. In addition, the “CSTI (bladder capacity)” value in assay [6] was “F”.

As for `CCn1c2ccccc2c2cc(CN3CCC(c4cccc(NC(=O)C(C)C)c4)CC3)ccc21` [Example 99], in assay [5], the “DIRC (contraction interval)” value is recorded as “E”. Moreover, the “CSTI (bladder capacity)” value in assay [6] is “F”.

Take `Cc1onc(-c2c(Cl)cccc2Cl)c1C(=O)NCCCCCN1CCC(c2cccc(NC(=O)C(C)C)c2)CC1` [Example 106]: in assay [5], the “DIRC (contraction interval)” value is “E”. For the same compound, the “CSTI (bladder capacity)” value in assay [6] was “F”.

Consider `CC(=O)c1cccc(O[C@H](CCN2CCC(c3cccc(NC(=O)C(C)C)c3)CC2)c2ccccc2)c1` [Example 116], for which, in assay [5], the “DIRC (contraction interval)” value was “E”. Moreover, the “CSTI (bladder capacity)” value in assay [6] was “F”.

`CC(C)C(=O)Nc1cccc(C2CCN(CCCCC(Oc3ccc(Cl)cc3)c3ccccc3)CC2)c1` (stereo not drawn) [Example 921]: the Ki in assay [2] (Peakr293 cell membranes) came out at 6.8 nM.

As to `CC(=O)c1cccc(OC(CCCCN2CCC(c3cccc(NC(=O)C(C)C)c3)CC2)c2ccc(F)cc2)c1` (stereo not drawn) [Example 922], the Ki in assay [2] (Peakr293 cell membranes) amounted to 25 nM.

As to `CC(C)C(=O)Nc1cccc(C2CCN(CCCCC(Oc3ccc(F)cc3)c3ccc(Cl)cc3)CC2)c1` (stereo not drawn) [Example 923], in assay [2] (Peakr293 cell membranes), the Ki turned out to be 1.3 nM.

As for `CC(C)C(=O)Nc1cccc(C2CCN(CCCCC(Oc3ccc(Br)cc3)c3ccccc3)CC2)c1` (stereo not drawn) [Example 924], the Ki in assay [2] (Peakr293 cell membranes) was 13.1 nM.

As to `COc1ccc(OC(CCCCN2CCC(c3cccc(NC(=O)C(C)C)c3)CC2)c2ccc(Cl)cc2)cc1` (stereo not drawn) [Example 925], in assay [2] (Peakr293 cell membranes), the Ki stood at 13.4 nM.

As to `CC(C)C(=O)Nc1cccc(C2CCN(CCCCC(Oc3ccc(F)cc3)c3ccc(F)cc3)CC2)c1` (stereo not drawn) [Example 926], the Ki in assay [2] (Peakr293 cell membranes) came to 1.4 nM.

With `CC(=O)c1cccc(OC(CCCCN2CCC(c3cccc(NC(=O)C(C)C)c3)CC2)c2ccccc2)c1` (stereo not drawn) [Example 927], the Ki in assay [2] (Peakr293 cell membranes) was 60.7 nM.

For `COc1ccc(OC(CCCCN2CCC(c3cccc(NC(=O)C(C)C)c3)CC2)c2ccccc2)cc1` (stereo not drawn) [Example 928], the inhibition constant Ki in assay [2] (Peakr293 cell membranes) turned out to be 14.9 nM.

With `CC(C)C(=O)Nc1cccc(C2CCN(CCCCC(Oc3cc(C(F)(F)F)ccc3F)c3ccc(C(F)(F)F)cc3)CC2)c1` (stereo not drawn) [Example 929], the Ki in assay [2] (Peakr293 cell membranes) is 29.9 nM.

Consider `CC(C)C(=O)Nc1cccc(C2CCN(CCCCC(Oc3cc(C(F)(F)F)ccc3F)c3cccc(Cl)c3)CC2)c1` (stereo not drawn) [Example 930], for which the Ki in assay [2] (Peakr293 cell membranes) came out at 14.6 nM.

`CC(C)C(=O)Nc1cccc(C2CCN(CCCCC(Oc3cc(C(F)(F)F)ccc3F)c3ccccc3F)CC2)c1` (stereo not drawn) [Example 931]: in assay [2] (Peakr293 cell membranes), the Ki worked out at 9.6 nM.

`CC(C)C(=O)Nc1cccc(C2CCN(CCCCC(Oc3cc(C(F)(F)F)ccc3F)c3cccc(F)c3)CC2)c1` (stereo not drawn) [Example 932]: the Ki in assay [2] (Peakr293 cell membranes) is 9.4 nM.

As to `CC(=O)c1cccc(OC(CCCCN2CCC(c3cccc(NC(=O)C(C)C)c3)CC2)c2ccc(Cl)cc2)c1` (stereo not drawn) [Example 933], the Ki in assay [2] (Peakr293 cell membranes) was determined as 10.9 nM.

`CC(C)C(=O)Nc1cccc(C2CCN(CCCCC(Oc3cc(C(F)(F)F)ccc3F)c3ccc(Cl)cc3)CC2)c1` (stereo not drawn) [Example 934]: the Ki in assay [2] (Peakr293 cell membranes) was found to be 12.3 nM.

`CC(C)C(=O)Nc1cccc(C2CCN(CCCCC(Oc3cc(C(F)(F)F)ccc3F)c3ccc(F)cc3)CC2)c1` (stereo not drawn) [Example 935]: the Ki in assay [2] (Peakr293 cell membranes) stood at 19.7 nM.

As for `CC(C)C(=O)Nc1cccc(C2CCN(CCCCC(Oc3ccc(Br)cc3)c3ccc(Cl)cc3)CC2)c1` (stereo not drawn) [Example 936], in assay [2] (Peakr293 cell membranes), the Ki worked out at 11.6 nM.

For `CC(C)C(=O)Nc1cccc(C2CCN(CCCCC(Oc3ccc(Cl)cc3)c3ccc(F)cc3)CC2)c1` (stereo not drawn) [Example 937], the inhibition constant (Ki) in assay [2] (Peakr293 cell membranes) was 28.4 nM.

Consider `CC(=O)c1ccccc1OC(CCCCN1CCC(c2cccc(NC(=O)C(C)C)c2)CC1)c1ccccc1` (stereo not drawn) [Example 938], for which the Ki in assay [2] (Peakr293 cell membranes) stood at 609 nM.

On to `CCOc1ccccc1OC(CCCCN1CCC(c2cccc(NC(=O)C(C)C)c2)CC1)c1ccccc1` (stereo not drawn) [Example 939], for which, in assay [2] (Peakr293 cell membranes), the Ki was 62 nM.

`CC(C)C(=O)Nc1cccc(C2CCN(CCCCC(Oc3ccc(F)cc3)c3ccccc3)CC2)c1` (stereo not drawn) [Example 940]: the inhibition constant (Ki) in assay [2] (Peakr293 cell membranes) is 1.8 nM.

With `CC(C)C(=O)Nc1cccc(C2CCN(CCCC(=O)c3ccc(F)cc3)CC2)c1` [Example 941], in assay [2] (Peakr293 cell membranes), the Ki came out at 15.2 nM.

For the compound `CC(C)C(=O)Nc1cccc(C2CCN(CCCc3cc[nH]c3)CC2)c1` [Example 942], the Ki in assay [2] (Peakr293 cell membranes) amounted to 188 nM.

With `CC(C)C(=O)Nc1cccc(C2CCN(CCCC(=O)c3ccc(C(C)C)cc3)CC2)c1` [Example 943], the Ki in assay [2] (Peakr293 cell membranes) came to 102 nM.

Take `COc1ccc(C(=O)CCCN2CCC(c3cccc(NC(=O)C(C)C)c3)CC2)cc1` [Example 944]: the Ki in assay [2] (Peakr293 cell membranes) came out at 38.8 nM.

On to `Cc1ccc(C(=O)CCCN2CCC(c3cccc(NC(=O)C(C)C)c3)CC2)cc1` [Example 945], for which the Ki in assay [2] (Peakr293 cell membranes) is 31.2 nM.

With `CC(C)C(=O)Nc1cccc(C2CCN(CCCC(=O)c3ccc(C(C)(C)C)cc3)CC2)c1` [Example 946], the inhibition constant (Ki) in assay [2] (Peakr293 cell membranes) stood at 337 nM.

For the compound `CC(C)C(=O)Nc1cccc(C2CCN(CCCC(=O)c3ccc(Br)cc3)CC2)c1` [Example 947], in assay [2] (Peakr293 cell membranes), the Ki amounted to 4.3 nM.

Turning to `CC(C)C(=O)Nc1cccc(C2CCN(CCCC(=O)c3cccs3)CC2)c1` [Example 948], the Ki in assay [2] (Peakr293 cell membranes) amounted to 21.2 nM.

Regarding [Phe^13, Tyr^19]-MCH, the Kd in assay [7] (radioiodinated ligand, G4F-7 cells) is 0.118 nM.

As to rat ANF, the Ki in assay [7] (mouse melanoma cells, read-out: Ki (inhibition of [Phe13,Tyr19]-MCH binding)) is 116 nM.

The Ki is a dissociation constant, usually derived from enzyme kinetics or from competition with a known ligand. The Kd is the concentration at which binding is half-saturated.
